We go through 28 molecules from patent publication US11851426B2, “Bicyclic amines as CDK2 inhibitors” (Incyte Corporation, priority 2019, dated 2023).

As a reminder, the IC50 is the concentration needed to halve the response being measured. Low values mean greater potency in that assay, high ones weaker potency in that assay.

For the experiment, the target named is CDK2/Cyclin E1 (Homo sapiens (Human), UniProt P24941). As to the kind of experiment: CDK2/Cyclin E1 HTRF enzyme activity assay. To be noted: 1 mM ATP; CDK2/Cyclin E1 0.25 nM; 60 minutes at room temperature. The class given is biochemical. The method in brief:
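Full-length GST-CDK2 co-expressed with FLAG-Cyclin E1 (baculovirus), 0.25 nM, reacted with 50 nM ULight-4E-BP1 (Thr37/46) peptide at 50 μM or 1 mM ATP in HEPES pH 7.5 buffer, 60 min, room temperature. EDTA plus Eu-anti-phospho-4E-BP1 antibody stopped the reaction; HTRF read after 1 h; IC50 from three- or four-parameter fits.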
A general note: TR-FRET usually uses a lanthanide donor and a delayed reading to cut background.
`C[C@@H]1CN(S(C)(=O)=O)CC[C@@H]1Nc1nc2cnc(-c3cn[nH]c3)c(OCC3(C(F)(F)F)CCC3)n2n1` [Example 114, N-((3R,4S)-3-Methyl-1-(methylsulfonyl)piperidin-4-yl)-6-(1H-pyrazol-4-yl)-5-((1-(trifluoromethyl)cyclobutyl)methoxy)-[1,2,4]triazolo[1,5-a]pyrazin-2-amine]: the IC50 was ≤ 20 nM.

Turning to `C[C@@H]1CN(S(C)(=O)=O)CC[C@@H]1Nc1nc2cnc(-c3cn[nH]c3)c(OCC3CC3)n2n1` [Example 115, 5-(Cyclopropylmethoxy)-N-((3R,4S)-3-methyl-1-(methylsulfonyl)piperidin-4-yl)-6-(1H-pyrazol-4-yl)-[1,2,4]triazolo[1,5-a]pyrazin-2-amine], the IC50 is ≤ 20 nM.

Consider `CC(C)CCOc1c(-c2cn[nH]c2)ncc2nc(N[C@H]3CCN(S(C)(=O)=O)C[C@H]3C)nn12` [Example 116, 5-(Isopentyloxy)-N-((3R,4S)-3-methyl-1-(methylsulfonyl)piperidin-4-yl)-6-(1H-pyrazol-4-yl)-[1,2,4]triazolo[1,5-a]pyrazin-2-amine], for which the IC50 was ≤ 20 nM.

In the case of `CS(=O)(=O)N1CCC(Nc2nc3cnc(-c4cn[nH]c4)c(OC4CCC4)n3n2)CC1` [Example 117, 5-Cyclobutoxy-N-(1-(methylsulfonyl)piperidin-4-yl)-6-(1H-pyrazol-4-yl)-[1,2,4]triazolo[1,5-a]pyrazin-2-amine], the IC50 is ≤ 20 nM.

For the molecule `CS(=O)(=O)N1CCC(Nc2nc3cnc(-c4cn[nH]c4)c(OC4CC(F)(F)C4)n3n2)CC1` [Example 118, 5-(3,3-Difluorocyclobutoxy)-N-(1-(methylsulfonyl)piperidin-4-yl)-6-(1H-pyrazol-4-yl)-[1,2,4]triazolo[1,5-a]pyrazin-2-amine], the IC50 was ≤ 20 nM.

As for `CS(=O)(=O)N1CCC(Nc2nc3cnc(-c4cn[nH]c4)c(OC4CCOC(C(F)(F)F)C4)n3n2)CC1` (stereo not shown) [Example 119, N-(1-(Methylsulfonyl)piperidin-4-yl)-6-(1H-pyrazol-4-yl)-5-((2-(trifluoromethyl)tetrahydro-2H-pyran-4-yl)oxy)-[1,2,4]triazolo[1,5-a]pyrazin-2-amine], the IC50 is ≤ 20 nM.

With `CS(=O)(=O)N1CCC(Nc2nc3cnc(-c4cn[nH]c4)c(OCC4(C(F)(F)F)CCC4)n3n2)CC1` [Example 120, N-(1-(Methylsulfonyl)piperidin-4-yl)-6-(1H-pyrazol-4-yl)-5-((1-(trifluoromethyl)cyclobutyl)methoxy)-[1,2,4]triazolo[1,5-a]pyrazin-2-amine], the IC50 is ≤ 20 nM.

For `CC(C)CCOc1c(-c2cn[nH]c2)ncc2nc(NC3CCN(S(C)(=O)=O)CC3)nn12` [Example 121, 5-(Isopentyloxy)-N-(1-(methylsulfonyl)piperidin-4-yl)-6-(1H-pyrazol-4-yl)-[1,2,4]triazolo[1,5-a]pyrazin-2-amine], the IC50 is ≤ 20 nM.

Turning to `CCOc1c(-c2cn[nH]c2)ncc2nc(NC3CCN(S(C)(=O)=O)CC3)nn12` [Example 122, 5-Ethoxy-N-(1-(methylsulfonyl)piperidin-4-yl)-6-(1H-pyrazol-4-yl)-[1,2,4]triazolo[1,5-a]pyrazin-2-amine], the IC50 was ≤ 20 nM.

Turning to `CCSc1c(-c2cn[nH]c2)ncc2nc(NC3CCN(S(C)(=O)=O)CC3)nn12` [Example 123, 5-(Ethylthio)-N-(1-(methylsulfonyl)piperidin-4-yl)-6-(1H-pyrazol-4-yl)-[1,2,4]triazolo[1,5-a]pyrazin-2-amine], the IC50 is ≤ 20 nM.

Regarding `CC(C)Sc1c(-c2cn[nH]c2)ncc2nc(NC3CCN(S(C)(=O)=O)CC3)nn12` [Example 124, 5-(Isopropylthio)-N-(1-(methylsulfonyl)piperidin-4-yl)-6-(1H-pyrazol-4-yl)-[1,2,4]triazolo[1,5-a]pyrazin-2-amine], the IC50 is ≤ 20 nM.

Take `C[C@@H]1CN(S(C)(=O)=O)CC[C@@H]1Nc1nc2cnc(-c3cn[nH]c3)c(N3CCCCC3)n2n1` [Example 125, N-((3R,4S)-3-Methyl-1-(methylsulfonyl)piperidin-4-yl)-5-(piperidin-1-yl)-6-(1H-pyrazol-4-yl)-[1,2,4]triazolo[1,5-a]pyrazin-2-amine]: the IC50 is ≤ 20 nM.

Turning to `CS(=O)(=O)N1CCC(Nc2nc3cnc(-c4cn[nH]c4)c(N4CCCCC4)n3n2)CC1` [Example 126, N-(1-(Methylsulfonyl)piperidin-4-yl)-5-(piperidin-1-yl)-6-(1H-pyrazol-4-yl)-[1,2,4]triazolo[1,5-a]pyrazin-2-amine], the IC50 is ≤ 20 nM.

For the molecule `C[C@@H]1CN(S(C)(=O)=O)CC[C@@H]1Nc1nc2cnc(-c3cn[nH]c3)c(N3CCCC(F)(F)C3)n2n1` [Example 127, 5-(3,3-Difluoropiperidin-1-yl)-N-((3R,4S)-3-methyl-1-(methylsulfonyl)piperidin-4-yl)-6-(1H-pyrazol-4-yl)-[1,2,4]triazolo[1,5-a]pyrazin-2-amine], the IC50 was ≤ 20 nM.

For `CS(=O)(=O)N1CCC(Nc2nc3cnc(-c4cn[nH]c4)c(N4CCC[C@@H](F)C4)n3n2)CC1` [Example 128, (R)-5-(3-Fluoropiperidin-1-yl)-N-(1-(methylsulfonyl)piperidin-4-yl)-6-(1H-pyrazol-4-yl)-[1,2,4]triazolo[1,5-a]pyrazin-2-amine], the IC50 is ≤ 20 nM.

For `CS(=O)(=O)N1CCC(Nc2nc3cnc(-c4cn[nH]c4)c(N4CCC[C@H](F)C4)n3n2)CC1` [Example 129, (S)-5-(3-Fluoropiperidin-1-yl)-N-(1-(methylsulfonyl)piperidin-4-yl)-6-(1H-pyrazol-4-yl)-[1,2,4]triazolo[1,5-a]pyrazin-2-amine], the IC50 is ≤ 20 nM.

For the molecule `CS(=O)(=O)N1CCC(Nc2nc3cnc(-c4cn[nH]c4)c(N4CCC(F)(F)C4)n3n2)CC1` [Example 130, 5-(3,3-Difluoropyrrolidin-1-yl)-N-(1-(methylsulfonyl)piperidin-4-yl)-6-(1H-pyrazol-4-yl)-[1,2,4]triazolo[1,5-a]pyrazin-2-amine], the IC50 was ≤ 20 nM.

Turning to `CS(=O)(=O)N1CCC(Nc2nc3cnc(-c4cn[nH]c4)c(N4CC5CCC4C5)n3n2)CC1` (stereo not shown) [Example 131, 5-(2-Azabicyclo[2.2.1]heptan-2-yl)-N-(1-(methylsulfonyl)piperidin-4-yl)-6-(1H-pyrazol-4-yl)-[1,2,4]triazolo[1,5-a]pyrazin-2-amine], the IC50 was ≤ 20 nM.

With `C[C@H]1CCCCN1c1c(-c2cn[nH]c2)ncc2nc(NC3CCN(S(C)(=O)=O)CC3)nn12` [Example 132, (A)-5-(2-Methylpiperidin-1-yl)-N-(1-(methylsulfonyl)piperidin-4-yl)-6-(1H-pyrazol-4-yl)-[1,2,4]triazolo[1,5-a]pyrazin-2-amine], the IC50 was ≤ 20 nM.

For the molecule `C[C@H]1CCCN1c1c(-c2cn[nH]c2)ncc2nc(NC3CCN(S(C)(=O)=O)CC3)nn12` [Example 133, (S)-5-(2-Methylpyrrolidin-1-yl)-N-(1-(methylsulfonyl)piperidin-4-yl)-6-(1H-pyrazol-4-yl)-[1,2,4]triazolo[1,5-a]pyrazin-2-amine], the IC50 is ≤ 20 nM.

Take `CS(=O)(=O)N1CCC(Nc2nc3cnc(-c4cn[nH]c4)c(N4CC[C@H](C(F)F)C4)n3n2)CC1` [Example 134, (S)-5-(3-(Difluoromethyl)pyrrolidin-1-yl)-N-(1-(methylsulfonyl)piperidin-4-yl)-6-(1H-pyrazol-4-yl)-[1,2,4]triazolo[1,5-a]pyrazin-2-amine]: the IC50 was ≤ 20 nM.

`CS(=O)(=O)N1CCC(Nc2nc3cnc(-c4cn[nH]c4)c(N4C5CCC4CC5)n3n2)CC1` [Example 135, 5-(7-Azabicyclo[2.2.1]heptan-7-yl)-N-(1-(methylsulfonyl)piperidin-4-yl)-6-(1H-pyrazol-4-yl)-[1,2,4]triazolo[1,5-a]pyrazin-2-amine]: the 50% inhibitory concentration (IC50) was ≤ 20 nM.

Consider `CS(=O)(=O)N1CCC(Nc2nc3cnc(-c4cn[nH]c4)c(N4CCCC(C(F)(F)F)C4)n3n2)CC1` (stereo not shown) [Example 136, N-(1-(Methylsulfonyl)piperidin-4-yl)-6-(1H-pyrazol-4-yl)-5-(3-(trifluoromethyl)piperidin-1-yl)-[1,2,4]triazolo[1,5-a]pyrazin-2-amine], for which the IC50 was ≤ 20 nM.

With `[2H]C(C)(C)Oc1c(-c2cn[nH]c2)ncc2nc(N[C@H]3CCN(S(C)(=O)=O)C[C@H]3C)nn12` [Example 137, N-((3R,4S)-3-Methyl-1-(methylsulfonyl)piperidin-4-yl)-5-((propan-2-yl-2-d)oxy)-6-(1H-pyrazol-4-yl)-[1,2,4]triazolo[1,5-a]pyrazin-2-amine], the IC50 was ≤ 20 nM.

For `[2H]C([2H])([2H])C(Oc1c(-c2cn[nH]c2)ncc2nc(N[C@H]3CCN(S(C)(=O)=O)C[C@H]3C)nn12)C([2H])([2H])[2H]` [Example 138, N-((3R,4S)-3-Methyl-1-(methylsulfonyl)piperidin-4-yl)-5-((propan-2-yl-1,1,1,3,3,3-d6)oxy)-6-(1H-pyrazol-4-yl)-[1,2,4]triazolo[1,5-a]pyrazin-2-amine], the IC50 was ≤ 20 nM.

On to `[2H]C([2H])([2H])C([2H])(Oc1c(-c2cn[nH]c2)ncc2nc(N[C@H]3CCN(S(C)(=O)=O)C[C@H]3C)nn12)C([2H])([2H])[2H]` [Example 139, N-((3R,4S)-3-Methyl-1-(methylsulfonyl)piperidin-4-yl)-5-((propan-2-yl-d7)oxy)-6-(1H-pyrazol-4-yl)-[1,2,4]triazolo[1,5-a]pyrazin-2-amine], for which the half-maximal inhibitory concentration (IC50) was ≤ 20 nM.

Take `C[C@@H]1CN(S(C)(=O)=O)CC[C@@H]1Nc1nc2cnc(-c3cn[nH]c3)c(OC3CCCC3)n2n1` [Example 140, 5-(Cyclopentyloxy)-N-((3R,4S)-3-methyl-1-(methylsulfonyl)piperidin-4-yl)-6-(1H-pyrazol-4-yl)-[1,2,4]triazolo[1,5-a]pyrazin-2-amine]: the IC50 is ≤ 20 nM.

As to `CC(C)Oc1c(-c2cn[nH]c2)ncc2nc(NC3CCN(S(C)(=O)=O)CC3)nn12` [Example 141, 5-Isopropoxy-N-(1-(methylsulfonyl)piperidin-4-yl)-6-(1H-pyrazol-4-yl)-[1,2,4]triazolo[1,5-a]pyrazin-2-amine], the IC50 was ≤ 20 nM.
